In US12037324B2, “Biarylmethyl heterocycles” (Université de Montréal, priority 2016, dated 2024):

Assays:
AGTR1 [1] = target: T1, AGTR1 (Homo sapiens, UniProt P30556); assay: DiscoveRx β-arrestin2 recruitment assay (enzyme complementation, Pathunter CHO-K1 AGTR1 β-arrestin cell line); type: cell-based; settings: DiscoveRx β-arrestin2 recruitment; for DiscoveRx β-arrestin2 Ymax (%): maximal response
T1 construct: host or cells: Pathunter CHO-K1 AGTR1 β-arrestin cell line (CHO-K1)
T1 sequence (P30556 1-359): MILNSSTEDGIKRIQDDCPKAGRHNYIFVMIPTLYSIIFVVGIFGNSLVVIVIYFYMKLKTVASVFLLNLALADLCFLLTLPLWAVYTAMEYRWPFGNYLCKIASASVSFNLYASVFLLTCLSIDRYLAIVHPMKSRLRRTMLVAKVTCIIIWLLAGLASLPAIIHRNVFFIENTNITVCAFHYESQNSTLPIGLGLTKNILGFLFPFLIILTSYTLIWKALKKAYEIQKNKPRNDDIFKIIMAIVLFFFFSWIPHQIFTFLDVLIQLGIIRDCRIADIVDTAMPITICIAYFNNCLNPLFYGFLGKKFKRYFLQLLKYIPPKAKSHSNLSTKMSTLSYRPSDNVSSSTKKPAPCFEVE
How it was run: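 CHO-K1 cells expressing AGTR1 with β-arrestin2 enzyme-complementation reporter, plated 14-16 h ahead in 1% serum medium, then exposed to compounds for 90 min at 37° C. Chemiluminescence read after 1 h detection. EC50 (agonist) or IC50 (antagonist) from 4-parameter logistic fit; activity as percentage of All maximal effect.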

AGTR1 [2] = target: T1, AGTR1; assay: DiscoveRx IP1 accumulation assay (HTRF), agonist mode, Pathunter CHO-K1 AGTR1 β-arrestin cell line; type: cell-based; settings: for EC50: read-out: IP-1 EC50
How it was run: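 Agonist mode in CHO-K1 AGTR1 β-arrestin cells plated 14-16 h before; compounds at varying concentrations for 90 min at 37° C, IP1 accumulation read by HTRF (D2-conjugate and anti-IP1 cryptate, 20 min room temperature). EC50 from 4-parameter logistic fit; activity given as percentage of maximal AII effect.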

hAT1R [3] = target: T2, hAT1R (Homo sapiens, UniProt P30556); assay: BRET β-arrestin2 biosensor assay, higher receptor expression (hAT1R 5 ng/well), HEK293 cells; type: cell-based; settings: for EC50: High AT1R Expression
T2 sequence (P30556 1-359): T1 sequence (P30556 1-359)

hAT1R [4] = target: T2, hAT1R; assay: cell-based; settings: section of the 42nd table ending at r951, example numbering restarts after the DiscoveRx section; read-out: β-arrestin2 EC50
hAT1R [5] = target: T2, hAT1R; assay: cell-based; settings: agonist mode; for EC50: read-out: BRET P63 EC50

For `CCc1nc2c(C)cc(C)nc2n1Cc1ccc(-c2cc(Oc3cc(C)ccn3)ccc2-c2nn[nH]n2)cc1` [Example 250], the EC50 (AGTR1 [1]) was 23 nM, the “DiscoveRx β-arrestin2 Ymax (%)” value (AGTR1 [1]) was 43.9% and the “IP-1 Ymax (%)” value (AGTR1 [2]) was 28.9%. For the same compound, the EC50 (AGTR1 [2]) was 50.5 nM, the “BRET β-Arrestin2 High AT1R Expression Ymax (%)” value (hAT1R [3]) was 79.8% and the EC50 (hAT1R [3]) was 3.8 nM. For the same compound, the EC50 (hAT1R [4]) was 11 nM, the “BRET P63 Ymax” value (hAT1R [5]) was 14.1% and the EC50 (hAT1R [5]) was 9.3 nM.

For `CCc1nc2c(C)cc(C)nc2n1Cc1ccc(-c2cc(Oc3cc(Cl)ccn3)ccc2-c2nn[nH]n2)cc1` [Example 251], the EC50 (AGTR1 [1]) was 33.6 nM, the “DiscoveRx β-arrestin2 Ymax (%)” value (AGTR1 [1]) was 20.2% and the “IP-1 Ymax (%)” value (AGTR1 [2]) was 10.9%. The EC50 (AGTR1 [2]) was 182 nM, the “BRET β-Arrestin2 High AT1R Expression Ymax (%)” value (hAT1R [3]) was 57.2% and the EC50 (hAT1R [3]) was 10.6 nM. The EC50 (hAT1R [4]) was 8.2 nM, the “BRET P63 Ymax” value (hAT1R [5]) was 6.7% and the EC50 (hAT1R [5]) was 11.1 nM.

For `CCc1nc2c(C)cc(C)nc2n1Cc1ccc(-c2cc(Oc3ncccc3F)ccc2-c2nn[nH]n2)cc1` [Example 253], the EC50 (AGTR1 [1]) was 31.2 nM, the “DiscoveRx β-arrestin2 Ymax (%)” value (AGTR1 [1]) was 37.2% and the “IP-1 Ymax (%)” value (AGTR1 [2]) was 18.7%. For the same compound, the EC50 (AGTR1 [2]) was 133 nM, the “BRET β-Arrestin2 High AT1R Expression Ymax (%)” value (hAT1R [3]) was 85.3% and the EC50 (hAT1R [3]) was 17.9 nM. For the same compound, the EC50 (hAT1R [4]) was 46 nM, the “BRET P63 Ymax” value (hAT1R [5]) was 12.6% and the EC50 (hAT1R [5]) was 38.3 nM.

`CCc1nc2c(C)cc(C)nc2n1Cc1ccc(-c2cc(Oc3cc(F)ccn3)ccc2-c2nn[nH]n2)cc1` [Example 254] was tested, and the EC50 (AGTR1 [1]) was 35.8 nM, the “DiscoveRx β-arrestin2 Ymax (%)” value (AGTR1 [1]) was 26.9% and the “IP-1 Ymax (%)” value (AGTR1 [2]) was 30.0%. The EC50 (AGTR1 [2]) was 177 nM, the “BRET β-Arrestin2 High AT1R Expression Ymax (%)” value (hAT1R [3]) was 75.6% and the EC50 (hAT1R [3]) was 20 nM. For the same compound, the EC50 (hAT1R [4]) was 59.1 nM, the “BRET P63 Ymax” value (hAT1R [5]) was 7.1% and the EC50 (hAT1R [5]) was 39.9 nM.

For `CCc1nc2c(C)cc(C)nc2n1Cc1ccc(-c2cc(Oc3ncccc3Cl)ccc2-c2nn[nH]n2)cc1` [Example 255], the EC50 (AGTR1 [1]) was 123 nM, the “DiscoveRx β-arrestin2 Ymax (%)” value (AGTR1 [1]) was 26.3% and the “IP-1 Ymax (%)” value (AGTR1 [2]) was 7.8%. For the same compound, the EC50 (AGTR1 [2]) was 471 nM, the “BRET β-Arrestin2 High AT1R Expression Ymax (%)” value (hAT1R [3]) was 80.2% and the EC50 (hAT1R [3]) was 24.3 nM. For the same compound, the EC50 (hAT1R [4]) was 87.8 nM, the “BRET P63 Ymax” value (hAT1R [5]) was 6.0% and the EC50 (hAT1R [5]) was 22.5 nM.

With `CCc1nc2c(C)cc(C)nc2n1Cc1ccc(-c2cc(Oc3cccnc3)ccc2-c2nnn[nH]2)cc1` [Example 257] the EC50 (AGTR1 [1]) was 9 nM, the “DiscoveRx β-arrestin2 Ymax (%)” value (AGTR1 [1]) was 34.9% and the “IP-1 Ymax (%)” value (AGTR1 [2]) was 10.7%. For the same compound, the EC50 (AGTR1 [2]) was 28.3 nM, the “BRET β-Arrestin2 High AT1R Expression Ymax (%)” value (hAT1R [3]) was 87.3% and the EC50 (hAT1R [3]) was 10 nM. The EC50 (hAT1R [4]) was 29.1 nM, the “BRET P63 Ymax” value (hAT1R [5]) was 10.8% and the EC50 (hAT1R [5]) was 23.7 nM.

`CCc1nc2c(C)cc(C)nc2n1Cc1ccc(-c2cc(Oc3cncnc3)ccc2-c2nnn[nH]2)cc1` [Example 258] was tested, and the EC50 (AGTR1 [1]) was 23.1 nM, the “DiscoveRx β-arrestin2 Ymax (%)” value (AGTR1 [1]) was 35.2% and the “IP-1 Ymax (%)” value (AGTR1 [2]) was 15.1%. The EC50 (AGTR1 [2]) was 42.8 nM, the “BRET β-Arrestin2 High AT1R Expression Ymax (%)” value (hAT1R [3]) was 75.7% and the EC50 (hAT1R [3]) was 41.5 nM. For the same compound, the EC50 (hAT1R [4]) was 81.9 nM, the “BRET P63 Ymax” value (hAT1R [5]) was 17.5% and the EC50 (hAT1R [5]) was 140 nM.

With `CCc1nc2c(C)cc(C)nc2n1Cc1ccc(-c2cc(Oc3cncc(C)c3)ccc2-c2nn[nH]n2)cc1` [Example 260] the EC50 (AGTR1 [1]) was 51.7 nM, the “DiscoveRx β-arrestin2 Ymax (%)” value (AGTR1 [1]) was 36.4% and the “IP-1 Ymax (%)” value (AGTR1 [2]) was 18.5%. The EC50 (AGTR1 [2]) was 175 nM, the “BRET β-Arrestin2 High AT1R Expression Ymax (%)” value (hAT1R [3]) was 87.9% and the EC50 (hAT1R [3]) was 7.8 nM. The EC50 (hAT1R [4]) was 49.9 nM and the EC50 (hAT1R [5]) was over 100000 nM.
